# Reference: patent EP2970215B1, “PYRROLIDINE DERIVATIVES, PHARMACEUTICAL COMPOSITIONS CONTAINING THEM, AND THEIR USE IN THERAPY” (AbbVie Deutschland GmbH & Co. KG, priority 2013, dated 2014)
# Molecular target: T1, human GlyT1c transporter (Homo sapiens, UniProt P48067)
# T1 construct: expressed in transfected cells; host or cells: CHO cells (recombinant; line hGlyT1c_5_CHO is named for the uptake assay)
# T1 sequence (P48067 1-706): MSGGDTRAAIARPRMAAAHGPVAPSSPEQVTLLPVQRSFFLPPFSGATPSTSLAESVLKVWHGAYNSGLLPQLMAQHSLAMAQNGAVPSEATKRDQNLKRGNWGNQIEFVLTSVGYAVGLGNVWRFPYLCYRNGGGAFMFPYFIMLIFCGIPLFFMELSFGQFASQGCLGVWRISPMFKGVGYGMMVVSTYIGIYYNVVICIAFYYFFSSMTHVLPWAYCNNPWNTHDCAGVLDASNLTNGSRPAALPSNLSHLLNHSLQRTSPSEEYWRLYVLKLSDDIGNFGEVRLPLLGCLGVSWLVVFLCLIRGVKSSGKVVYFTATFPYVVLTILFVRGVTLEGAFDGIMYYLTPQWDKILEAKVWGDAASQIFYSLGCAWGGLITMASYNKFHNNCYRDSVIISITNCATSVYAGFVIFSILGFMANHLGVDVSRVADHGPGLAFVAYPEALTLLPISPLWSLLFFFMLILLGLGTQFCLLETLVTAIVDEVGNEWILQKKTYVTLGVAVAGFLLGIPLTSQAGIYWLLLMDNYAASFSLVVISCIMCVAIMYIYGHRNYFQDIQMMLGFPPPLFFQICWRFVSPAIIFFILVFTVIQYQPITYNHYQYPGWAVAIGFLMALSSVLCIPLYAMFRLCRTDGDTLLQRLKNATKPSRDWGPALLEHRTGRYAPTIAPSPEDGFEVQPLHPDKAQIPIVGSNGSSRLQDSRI
# Assay: Radioligand binding assay using recombinant CHO cell membranes expressing human GlyT1
# Conditions: radioligand binding to human GlyT1c transporter-expressing membranes
# Description: 2. Radioligand binding assays using recombinant CHO cell membranes expressing human GlyT1: […]
row,SMILES,Ki [µM]
1,"Cn1cnc(S(=O)(=O)N2C[C@@H](Nc3ccccc3C(F)(F)F)[C@H](c3ccc(F)cc3)C2)c1 (relative stereo) [Example 87, trans-4-(4-fluorophenyl)-1-[(1-methyl-1H-imidazol-4-yl)sulfonyl]-N-[2-(trifluoromethyl)phenyl]pyrrolidin-3-amine]",≤ 10
2,"Cn1cnc(S(=O)(=O)N2C[C@@H](Nc3ccc(C(F)(F)F)cc3)[C@H](c3ccc(F)cc3)C2)c1 (relative stereo) [Example 89, trans-4-(4-fluorophenyl)-1-[(1-methyl-1H-imidazol-4-yl)sulfonyl]-N-[4-(trifluoromethyl)phenyl]pyrrolidin-3-amine]",≤ 0.1
3,"Cn1cnc(S(=O)(=O)N2C[C@@H](Nc3ccccc3F)[C@H](c3ccc(F)cc3)C2)c1 (relative stereo) [Example 90, trans-N-(2-fluorophenyl)-4-(4-fluorophenyl)-1-[(1-methyl-1H-imidazol-4-yl)sulfonyl]pyrrolidin-3-amine]",≤ 1
4,"Cn1cnc(S(=O)(=O)N2C[C@@H](Nc3cccc(F)c3)[C@H](c3ccc(F)cc3)C2)c1 (relative stereo) [Example 91, trans-N-(3-fluorophenyl)-4-(4-fluorophenyl)-1-[(1-methyl-1H-imidazol-4-yl)sulfonyl]pyrrolidin-3-amine]",≤ 0.1
5,"Cn1cnc(S(=O)(=O)N2C[C@@H](Nc3ccc(F)cc3)[C@H](c3ccc(F)cc3)C2)c1 (relative stereo) [Example 92, trans-N,4-bis(4-fluorophenyl)-1-[(1-methyl-1H-imidazol-4-yl)sulfonyl]pyrrolidin-3-amine]",≤ 0.1
6,"Cn1cnc(S(=O)(=O)N2C[C@@H](Nc3ccccc3Cl)[C@H](c3ccc(F)cc3)C2)c1 (relative stereo) [Example 93, trans-N-(2-chlorophenyl)-4-(4-fluorophenyl)-1-[(1-methyl-1H-imidazol-4-yl)sulfonyl]pyrrolidin-3-amine]",≤ 1
7,"Cn1cnc(S(=O)(=O)N2C[C@@H](Nc3cccc(Cl)c3)[C@H](c3ccc(F)cc3)C2)c1 (relative stereo) [Example 94, trans-N-(3-chlorophenyl)-4-(4-fluorophenyl)-1-[(1-methyl-1H-imidazol-4-yl)sulfonyl]pyrrolidin-3-amine]",≤ 0.01
8,"Cn1cnc(S(=O)(=O)N2C[C@@H](Nc3ccc(Cl)cc3)[C@H](c3ccc(F)cc3)C2)c1 (relative stereo) [Example 95, trans-N-(4-chlorophenyl)-4-(4-fluorophenyl)-1-[(1-methyl-1H-imidazol-4-yl)sulfonyl]pyrrolidin-3 - amine]",≤ 1
9,"COc1ccc(N[C@@H]2CN(S(=O)(=O)c3cn(C)cn3)C[C@H]2c2ccccc2)cc1C#N (relative stereo) [Example 100, 2-methoxy-5-({trans-1-[(1-methyl-1H-imidazol-4-yl)sulfonyl]-4-phenylpyrrolidin-3-yl}amino)benzonitrile]",≤ 10
10,"Cc1cc(C#N)cc(N[C@@H]2CN(S(=O)(=O)c3cn(C)cn3)C[C@H]2c2ccccc2)c1 (relative stereo) [Example 101, 3-methyl-5-({trans-1-[(1-methyl-1H-imidazol-4-yl)sulfonyl]-4-phenylpyrrolidin-3-yl}amino)benzonitrile]",≤ 1
11,"CCS(=O)(=O)N1C[C@@H](Nc2cccc(C#N)c2)[C@H](c2ccccc2)C1 (relative stereo) [Example 131, 3-{[trans-1-(ethylsulfonyl)-4-phenylpyrrolidin-3-yl]amino}benzonitrile]",> 10
12,"N#Cc1cccc(N[C@@H]2CN(S(=O)(=O)CC3CC3)C[C@H]2c2ccccc2)c1 (relative stereo) [Example 133, 3-({trans-1-[(cyclopropylmethyl)sulfonyl]-4-phenylpyrrolidin-3-yl}amino)benzonitrile]",≤ 10
13,COc1ccc(S(=O)(=O)N2C[C@@H](NC(=O)c3cc(Cl)cc(Cl)c3)[C@H](c3ccccc3)C2)cc1 (relative stereo) [Example 135],> 10
14,"COc1ccc(S(=O)(=O)N2C[C@@H](Nc3cccc(C#N)c3)[C@H](c3ccccc3)C2)cc1 (relative stereo) [Example 137, 3-({trans-1-[(4-methoxyphenyl)sulfonyl]-4-phenylpyrrolidin-3-yl}amino)benzonitrile]",≤ 10
15,"N#Cc1cccc(N[C@@H]2CN(S(=O)(=O)c3ccc(C(F)(F)F)cc3)C[C@H]2c2ccccc2)c1 (relative stereo) [Example 144, 3-{[trans-4-phenyl-1-{[4-(trifluoromethyl)phenyl]sulfonyl}pyrrolidin-3-yl]amino}benzonitrile]",> 10

# Continued, values first:
row,Ki [µM],SMILES
1,≤ 0.1,"Cn1cnc(S(=O)(=O)N2C[C@@H](NC(=O)c3cccc(C(F)(F)F)c3Cl)[C@H](c3ccccc3Cl)C2)c1 (relative stereo) [Example 115, 2-chloro-N-{trans-4-(2-chlorophenyl)-1-[(1-methyl-1H-imidazol-4-yl)sulfonyl]pyrrolidin-3-yl}-3-(trifluoromethyl)benzamide]"
2,≤ 10,"CCS(=O)(=O)N1C[C@@H](NC(=O)c2cc(Cl)cc(Cl)c2)[C@H](c2ccccc2)C1 (relative stereo) [Example 123, 3,5-dichloro-N-[trans-1-(ethylsulfonyl)-4-phenylpyrrolidin-3-yl]benzamide]"
3,≤ 10,"CCS(=O)(=O)N1C[C@@H](NC(=O)c2cccc(C(F)(F)F)c2Cl)[C@H](c2ccccc2)C1 (relative stereo) [Example 124, 2-chloro-N-[trans-1-(ethylsulfonyl)-4-phenylpyrrolidin-3-yl]-3-(trifluoromethyl)benzamide]"
4,> 10,"CCCS(=O)(=O)N1C[C@@H](NC(=O)c2ccc(C(F)(F)F)cc2)[C@H](c2ccccc2)C1 (relative stereo) [Example 125, N-[trans-4-phenyl-1-(propylsulfonyl)pyrrolidin-3-yl]-4-(trifluoromethyl)benzamide]"
5,≤ 10,"CCCS(=O)(=O)N1C[C@@H](NC(=O)c2cc(Cl)cc(Cl)c2)[C@H](c2ccccc2)C1 (relative stereo) [Example 126, 3,5-dichloro-N-[trans-4-phenyl-1-(propylsulfonyl)pyrrolidin-3-yl]benzamide]"
6,≤ 10,"CCCS(=O)(=O)N1C[C@@H](NC(=O)c2cccc(C(F)(F)F)c2Cl)[C@H](c2ccccc2)C1 (relative stereo) [Example 127, 2-chloro-N-[trans-4-phenyl-1-(propylsulfonyl)pyrrolidin-3-yl]-3-(trifluoromethyl)benzamide]"
7,≤ 10,"O=C(N[C@@H]1CN(S(=O)(=O)CC2CC2)C[C@H]1c1ccccc1)c1ccc(C(F)(F)F)cc1 (relative stereo) [Example 128, N-{trans-1-[(cyclopropylmethyl)sulfonyl]-4-phenylpyrrolidin-3-yl}-4-(trifluoromethyl)benzamide]"
8,> 10,"O=C(N[C@@H]1CN(S(=O)(=O)CC2CC2)C[C@H]1c1ccccc1)c1cc(Cl)cc(Cl)c1 (relative stereo) [Example 129, 3,5-dichloro-N-{trans-1-[(cyclopropylmethyl)sulfonyl]-4-phenylpyrrolidin-3-yl}benzamide]"
9,> 10,"O=C(N[C@@H]1CN(S(=O)(=O)CC2CC2)C[C@H]1c1ccccc1)c1cccc(C(F)(F)F)c1Cl (relative stereo) [Example 130, 2-chloro-N-{trans-1-[(cyclopropylmethyl)sulfonyl]-4-phenylpyrrolidin-3-yl}-3-(trifluoromethyl)benzamide]"
10,≤ 10,"CCCS(=O)(=O)N1C[C@@H](Nc2cccc(C#N)c2)[C@H](c2ccccc2)C1 (relative stereo) [Example 132, 3-{[trans-4-phenyl-1-(propylsulfonyl)pyrrolidin-3-yl]amino}benzonitrile]"
11,≤ 10,"COc1ccc(S(=O)(=O)N2C[C@@H](NC(=O)c3ccc(C(F)(F)F)cc3)[C@H](c3ccccc3)C2)cc1 (relative stereo) [Example 134, N-{trans-1-[(4-methoxyphenyl)sulfonyl]-4-phenylpyrrolidin-3-yl}-4-(trifluoromethyl)benzamide]"
12,≤ 10,"COc1ccc(S(=O)(=O)N2C[C@@H](NC(=O)c3cccc(C(F)(F)F)c3Cl)[C@H](c3ccccc3)C2)cc1 (relative stereo) [Example 136, 2-chloro-N-{trans-1-[(4-methoxyphenyl)sulfonyl]-4-phenylpyrrolidin-3-yl}-3-(trifluoromethyl)benzamide]"
13,≤ 10,"O=C(N[C@@H]1CN(S(=O)(=O)c2ccc(C(F)(F)F)cc2)C[C@H]1c1ccccc1)c1cc(Cl)cc(Cl)c1 (relative stereo) [Example 142, 3,5-dichloro-N-[trans-4-phenyl-1-{[4-(trifluoromethyl)phenyl]sulfonyl}pyrrolidin-3-yl]benzamide]"
14,≤ 10,"O=C(N[C@@H]1CN(S(=O)(=O)c2ccc(C(F)(F)F)cc2)C[C@H]1c1ccccc1)c1cccc(C(F)(F)F)c1Cl (relative stereo) [Example 143, 2-chloro-N-[trans-4-phenyl-1-{[4-(trifluoromethyl)phenyl]sulfonyl}pyrrolidin-3-yl]-3-(trifluoromethyl)benzamide]"
